Experimental data as given in ChEMBL document CHEMBL3045869, “Efficacy of fungicides with various modes of action in controlling the early stages of an Erysiphe necator-induced epidemic” (2010).
Active and inactive are the calls of the source. The calls are words filed in the database; no cut-off is given here.

Key:
[1] = system: Erysiphe necator; assay: Antifungal activity against Erysiphe necator biotype B assessed as number of spores at 0.625 g a.i./l applied 4 days post-inoculation measured after 14 days during cycle 1 by leaf-disk method (reference value: 35.9 x 10^3 cm'-2); format: functional
[2] = system: Erysiphe necator; assay: Antifungal activity against Erysiphe necator biotype B assessed as AUDPC at 0.625 g a.i./l applied 4 days post-inoculation measured after 14 days during cycle 1 by leaf-disk method (reference value: 695.6); format: functional
[3] = system: Erysiphe necator; assay: Antifungal activity against Erysiphe necator biotype B assessed as AUDPC at 0.625 g a.i./l applied 4 days post-inoculation measured after 14 days during cycle 2 by leaf-disk method (reference value: 844); format: functional
[4] = system: Erysiphe necator; assay: Antifungal activity against Erysiphe necator biotype B assessed as AUDPC at 0.625 g a.i./l applied 48 hr post-inoculation measured after 14 days by leaf-disk method (reference value: 394); format: functional
[5] = system: Erysiphe necator; assay: Antifungal activity against Erysiphe necator biotype B assessed as disease severity at 0.625 g a.i./l applied 4 days post-inoculation measured after 14 days during cycle 1 by leaf-disk method relative to untreated-control; format: functional
[6] = system: Erysiphe necator; assay: Antifungal activity against Erysiphe necator biotype B assessed as disease severity at 0.625 g a.i./l applied 4 days post-inoculation measured immediately during cycle 1 by leaf-disk method relative to untreated-control; format: functional
[7] = system: Erysiphe necator; assay: Antifungal activity against Erysiphe necator biotype B assessed as number of spores at 0.625 g a.i./l applied 48 hr post-inoculation measured after 14 days by leaf-disk method (reference value: 43.5 x 10^3 cm'-2); format: functional
[8] = system: Erysiphe necator; assay: Antifungal activity against Erysiphe necator biotype B assessed as number of spores at 0.625 g a.i./l applied 13 days post-inoculation measured after 14 days during cycle 2 by leaf-disk method (reference value: 47.6 x 10^3 cm'-2); format: functional
[9] = system: Erysiphe necator; assay: Antifungal activity against Erysiphe necator biotype B assessed as disease severity at 0.625 g a.i./l applied 48 hr post-inoculation measured after 14 days by leaf-disk method relative to untreated-control; format: functional
[10] = system: Erysiphe necator; assay: Antifungal activity against Erysiphe necator biotype B assessed as AUDPC at 0.625 g a.i./l applied 13 days post-inoculation measured after 14 days during cycle 2 by leaf-disk method (reference value: 654); format: functional
[11] = system: Erysiphe necator; assay: Antifungal activity against Erysiphe necator biotype B assessed as number of spores at 0.625 g a.i./l applied 4 days post-inoculation measured after 14 days during cycle 2 by leaf-disk method (reference value: 44.4 x 10^3 cm'-2); format: functional
[12] = system: Erysiphe necator; assay: Antifungal activity against Erysiphe necator biotype B assessed as disease severity at 0.625 g a.i./l applied 48 hr post-inoculation measured after 7 days by leaf-disk method relative to untreated-control; format: functional
[13] = system: Erysiphe necator; assay: Antifungal activity against Erysiphe necator biotype B assessed as AUDPC at 1 g a.i./l applied 48 hr post-inoculation measured after 14 days by leaf-disk method (reference value: 394); format: functional
[14] = system: Erysiphe necator; assay: Antifungal activity against Erysiphe necator biotype B assessed as inhibition of mycelial growth at 1 g a.i./l applied 4 days post-inoculation measured on after 14 days during cycle 2 by leaf-disk method relative to untreated-control; format: functional, organism-based
[15] = system: Erysiphe necator; assay: Antifungal activity against Erysiphe necator biotype B assessed as AUDPC at 1 g a.i./l applied 4 days post-inoculation measured after 14 days during cycle 2 by leaf-disk method (reference value: 844); format: functional
[16] = system: Erysiphe necator; assay: Antifungal activity against Erysiphe necator biotype B assessed as AUDPC at 1 g a.i./l applied 4 days post-inoculation measured after 14 days during cycle 1 by leaf-disk method (reference value: 695.6); format: functional
[17] = system: Erysiphe necator; assay: Antifungal activity against Erysiphe necator biotype B assessed as disease severity at 1 g a.i./l applied 13 days post-inoculation measured after 14 days during cycle 2 by leaf-disk method relative to untreated-control; format: functional
[18] = system: Erysiphe necator; assay: Antifungal activity against Erysiphe necator biotype B assessed as AUDPC at 1 g a.i./l applied 13 days post-inoculation measured after 14 days during cycle 2 by leaf-disk method (reference value: 654); format: functional
[19] = system: Erysiphe necator; assay: Antifungal activity against Erysiphe necator biotype B assessed as inhibition of disease severity at 1 g a.i./l applied 48 hr post-inoculation measured after 14 days by leaf-disk method relative to control; format: functional; design: scale not given: the % may be the effect or the level left
[20] = system: Erysiphe necator; assay: Antifungal activity against Erysiphe necator biotype B assessed as reduction in mycelial growth at 1 g a.i./l applied 13 days post-inoculation measured after 14 days during cycle 2 by leaf-disk method relative to untreated-control; format: functional, organism-based
[21] = system: Erysiphe necator; assay: Antifungal activity against Erysiphe necator biotype B assessed as inhibition of mycelial growth at 1 g a.i./l applied 48 hr post-inoculation measured after 14 days by leaf-disk method; format: functional, organism-based
[22] = system: Erysiphe necator; assay: Antifungal activity against Erysiphe necator biotype B assessed as disease severity at 1 g a.i./l applied 4 days post-inoculation measured on day 13 during cycle 1 by leaf-disk method relative to untreated-control; format: functional
[23] = system: Erysiphe necator; assay: Antifungal activity against Erysiphe necator biotype B assessed as disease severity at 1 g a.i./l applied 4 days post-inoculation measured immediately during cycle 1 by leaf-disk method relative to untreated-control; format: functional
[24] = system: Erysiphe necator; assay: Antifungal activity against Erysiphe necator biotype B assessed as number of spores at 1 g a.i./l applied 13 days post-inoculation measured after 14 days during cycle 2 by leaf-disk method (reference value: 47.6 x 10^3 cm'-2); format: functional
[25] = system: Erysiphe necator; assay: Antifungal activity against Erysiphe necator biotype B assessed as number of spores at 1 g a.i./l applied 48 hr post-inoculation measured after 14 days by leaf-disk method (reference value: 43.5 x 10^3 cm'-2); format: functional
[26] = system: Erysiphe necator; assay: Antifungal activity against Erysiphe necator biotype B assessed as number of spores at 1 g a.i./l applied 4 days post-inoculation measured after 14 days during cycle 1 by leaf-disk method (reference value: 35.9 x 10^3 cm'-2); format: functional
[27] = system: Erysiphe necator; assay: Antifungal activity against Erysiphe necator biotype B assessed as number of spores at 1 g a.i./l applied 4 days post-inoculation measured after 14 days during cycle 2 by leaf-disk method (reference value: 44.4 x 10^3 cm'-2); format: functional
[28] = system: Erysiphe necator; assay: Antifungal activity against Erysiphe necator biotype B assessed as disease severity at 1 g a.i./l applied 13 days post-inoculation measured after 6 days during cycle 2 by leaf-disk method relative to untreated-control; format: functional
[29] = system: Erysiphe necator; assay: Antifungal activity against Erysiphe necator biotype B assessed as disease severity at 0.5 g a.i./l applied 13 days post-inoculation measured after 6 days during cycle 2 by leaf-disk method relative to untreated-control; format: functional
[30] = system: Erysiphe necator; assay: Antifungal activity against Erysiphe necator biotype B assessed as AUDPC at 0.5 g a.i./l applied 4 days post-inoculation measured after 14 days during cycle 2 by leaf-disk method (reference value: 844); format: functional
[31] = system: Erysiphe necator; assay: Antifungal activity against Erysiphe necator biotype B assessed as reduction in mycelial growth at 0.5 g a.i./l applied 4 days post-inoculation measured after 11 days during cycle 2 by leaf-disk method relative to untreated-control; format: functional, organism-based
[32] = system: Erysiphe necator; assay: Antifungal activity against Erysiphe necator biotype B assessed as reduction in disease severity at 0.5 g a.i./l applied 48 hr post-inoculation measured after 14 days by leaf-disk method relative to untreated-control; format: functional, organism-based
[33] = system: Erysiphe necator; assay: Antifungal activity against Erysiphe necator biotype B assessed as AUDPC at 0.5 g a.i./l applied 13 days post-inoculation measured after 14 days during cycle 2 by leaf-disk method (reference value: 654); format: functional
[34] = system: Erysiphe necator; assay: Antifungal activity against Erysiphe necator biotype B assessed as number of spores at 0.5 g a.i./l applied 13 days post-inoculation measured after 14 days during cycle 2 by leaf-disk method (reference value: 47.6 x 10^3 cm'-2); format: functional
[35] = system: Erysiphe necator; assay: Antifungal activity against Erysiphe necator biotype B assessed as number of spores at 0.5 g a.i./l applied 4 days post-inoculation measured after 14 days during cycle 1 by leaf-disk method (reference value: 35.9 x 10^3 cm'-2); format: functional
[36] = system: Erysiphe necator; assay: Antifungal activity against Erysiphe necator biotype B assessed as number of spores at 0.5 g a.i./l applied 4 days post-inoculation measured after 14 days during cycle 2 by leaf-disk method (reference value: 44.4 x 10^3 cm'-2); format: functional
[37] = system: Erysiphe necator; assay: Antifungal activity against Erysiphe necator biotype B assessed as disease severity at 0.5 g a.i./l applied 4 days post-inoculation measured immediately during cycle 1 by leaf-disk method relative to untreated-control; format: functional
[38] = system: Erysiphe necator; assay: Antifungal activity against Erysiphe necator biotype B assessed as reduction in sporulation at 0.5 g a.i./l applied 4 days post-inoculation measured after 11 days during cycle 2 by leaf-disk method relative to untreated-control; format: functional, organism-based
[39] = system: Erysiphe necator; assay: Antifungal activity against Erysiphe necator biotype B assessed as number of spores at 0.5 g a.i./l applied 48 hr post-inoculation measured after 14 days by leaf-disk method (reference value: 43.5 x 10^3 cm'-2); format: functional
[40] = system: Erysiphe necator; assay: Antifungal activity against Erysiphe necator biotype B assessed as reduction in disease severity at 0.5 g a.i./l applied 4 days post-inoculation measured after 11 days during cycle 2 by leaf-disk method relative to untreated-control; format: functional, organism-based
[41] = system: Erysiphe necator; assay: Antifungal activity against Erysiphe necator biotype B assessed as reduction in AUDPC at 0.5 g a.i./l applied 4 days post-inoculation measured after 11 days during cycle 2 by leaf-disk method relative to untreated-control; format: functional, organism-based
[42] = system: Erysiphe necator; assay: Antifungal activity against Erysiphe necator biotype B assessed as AUDPC at 0.5 g a.i./l applied 48 hr post-inoculation measured after 14 days by leaf-disk method (reference value: 394); format: functional
[43] = system: Erysiphe necator; assay: Antifungal activity against Erysiphe necator biotype B assessed as disease severity at 0.5 g a.i./l applied 4 days post-inoculation measured after 14 days during cycle 1 by leaf-disk method relative to untreated-control; format: functional
[44] = system: Erysiphe necator; assay: Antifungal activity against Erysiphe necator biotype B assessed as disease severity at 0.5 g a.i./l applied 13 days post-inoculation measured after 14 days during cycle 2 by leaf-disk method relative to untreated-control; format: functional
[45] = system: Erysiphe necator; assay: Antifungal activity against Erysiphe necator biotype B assessed as AUDPC at 0.5 g a.i./l applied 4 days post-inoculation measured after 14 days during cycle 1 by leaf-disk method (reference value: 695.6); format: functional

## CO/N=C(\C(=O)OC)c1ccccc1CO/N=C(\C)c1cccc(C(F)(F)F)c1
[1]
  Activity: 0.2 ×10³ /cm2
[2]
  AUDPC: 459
[3]
  AUDPC: 0
[4]
  AUDPC: 86
[5]
  Activity: 60%
[6]
  Activity: 24%
[7]
  Activity: 2.1 ×10³ /cm2
[8]
  Activity: 1 ×10³ /cm2
[9]
  Activity: 31.8%
[10]
  AUDPC: 6
[11]
  Activity: 0.06 ×10³ /cm2
[12]
  Activity: 3%

## CC(C)(C)C(O)(CCc1ccc(Cl)cc1)Cn1cncn1 (stereo not given) [TEBUCONAZOLE]
[13]
  AUDPC: 0
[14]
  inhibition: Active
[15]
  AUDPC: 0
[16]
  AUDPC: 56.6
[17]
  Activity: 95%
[18]
  AUDPC: 612
[19]
  Activity: 0%
[20]
  Activity: inactive
[21]
  inhibition: Active
[22]
  Activity: 0%
[23]
  Activity: 25%
[24]
  Activity: 30.4 ×10³ /cm2
[25]
  Activity: 0.8 ×10³ /cm2
[26]
  Activity: 0.2 ×10³ /cm2
[27]
  Activity: 0.02 ×10³ /cm2
[28]
  Activity: 50%

## Fc1ccc(Oc2ccnc3cc(Cl)cc(Cl)c23)cc1 [QUINOXYFEN]
[29]
  Activity: 5%
[30]
  AUDPC: 6373
[31]
  Activity: inactive
[32]
  Activity: Active
[33]
  AUDPC: 361
[34]
  Activity: 23.2 ×10³ /cm2
[35]
  Activity: 10.7 ×10³ /cm2
[36]
  Activity: 36.9 ×10³ /cm2
[37]
  Activity: 24%
[38]
  Activity: inactive
[39]
  Activity: 27.3 ×10³ /cm2
[40]
  Activity: inactive
[41]
  Activity: Active
[42]
  AUDPC: 354
[43]
  Activity: 60%
[44]
  Activity: 89%
[45]
  AUDPC: 442
